Structures are written as SMILES.

This note sets out measurements from the Deep4Chem optical property database.

A short description of the first series: solvent given as SMILES. To be noted: in CS(C)=O.
For `COc1cnc(-c2cc[n+](C3=C(F)C(F)(F)C(F)(F)[C-]3F)cc2)s1`, the emission maximum is 490 nm.

`Cn1c(=O)c(/N=N/c2ccc(S(=O)(=O)O)c3ccccc23)c(O)c2ccccc21`: the emission maximum was 571 nm.

Compound `CCN(CC)c1ccc2cc(/C=C/C(=C(C#N)C#N)c3ccc4c(c3)c3ccccc3n4CC)c(=O)oc2c1` showed an emission maximum of 638 nm.

In turn, `CC(C)(C)c1ccc2c(c1)c1cc(C(C)(C)C)ccc1n2-c1ccc2oc3nc4oc5ccc(C(F)(F)F)cc5c4cc3c2c1` yielded an emission maximum of 517 nm.

The compound `CSc1ccc(-c2nc3sc4ccccc4c3s2)cc1` had an emission maximum of 431 nm.

On to `O=C1/C(=C\c2ccc3oc4ccccc4c3c2)S(=O)(=O)c2ccccc21`, for which the emission maximum came to 449 nm.

Still in this series, the particulars now being: in Cc1ccccc1.
`c1ccc2c(c1)CCc1ccccc1N2c1c2ccccc2c(N2c3ccccc3CCc3ccccc32)c2ccccc12` registered an emission maximum of 525 nm.

Take `CCCCCCc1cc2/c(=C(\C#N)C(=O)OC)s/c(=c3/s/c(=C(/C#N)C(=O)OC)c4cc(CCCCCC)sc34)c2s1`: the emission maximum came out at 605 nm.

In the case of `Cn1c(=O)c(/N=N/c2ccc(S(=O)(=O)O)c3ccccc23)c(O)c2ccccc21`, the emission maximum is 540 nm.

For `N#CC(C#N)=Cc1ccc2nc(C#Cc3ccc(N(c4ccc(C#Cc5nc6ccc(C=C(C#N)C#N)cc6s5)cc4)c4ccc(C#Cc5nc6ccc(C=C(C#N)C#N)cc6s5)cc4)cc3)sc2c1`, the emission maximum is 512 nm.

Compound `CCN(CC)c1ccc2cc(/C=C/C(=C(C#N)C#N)c3ccc4c(c3)c3ccccc3n4CC)c(=O)oc2c1` gave an emission maximum of 571 nm.

As to `c1ccc2c(c1)c1ccccc1n2-c1ccc(-c2ccc(-n3c4ccccc4c4ccccc43)nc2-n2c3ccccc3c3ccccc32)nn1`, the emission maximum was 423 nm.

In turn, `O=P1(c2ccccc2)C2=C(c3ccccc31)[Si](c1ccccc1)(c1ccccc1)c1cc(N(c3ccccc3)c3ccccc3)ccc12` (stereo not drawn) registered an emission maximum of 558 nm.

`c1ccc2c(c1)[nH]c1c3[nH]c4ccccc4c3c3nsnc3c21`: the emission maximum turned out to be 456 nm.

Compound `COc1ccc(C2=[N+]3C(=Nc4c(-c5ccccc5-c5ccc(C(C)(C)C)cc5)cc(-c5ccc(OC)cc5)n4[B-]3(F)F)c3c2c2cc(C(C)(C)C)ccc2c2ccccc32)cc1` gave an emission maximum of 723 nm.

The compound `CC(C)(C)c1ccc2c(c1)c1cc(C(C)(C)C)ccc1n2-c1ccc2oc3nc4oc5ccc(C(F)(F)F)cc5c4cc3c2c1` displayed an emission maximum of 422 nm.

`CCCCCCCCOc1ccc2c3cccc4c(OCCCCCCCC)ccc(c5cccc1c52)c43`: the emission maximum is reported as 467.99 nm.

The compound `O=C1/C(=C\c2ccc3oc4ccccc4c3c2)S(=O)(=O)c2ccccc21` yielded an emission maximum of 430 nm.

The series is the same for the next values; noted with them: in ClC(Cl)(Cl)Cl.
The compound `COc1ccc(/C=C/C2=CC(/C=C/c3ccc(OC)cc3)=[O+][B-](F)(F)O2)cc1` returned an emission maximum of 492 nm.

`CCCCCCCCOc1ccc2c3cccc4c(OCCCCCCCC)ccc(c5cccc1c52)c43` registered an emission maximum of 471.01 nm.

Staying with this series, now noted: in ClC(Cl)Cl.
`COc1cnc(-c2cc[n+](C3=C(F)C(F)(F)C(F)(F)[C-]3F)cc2)s1` came in with an emission maximum of 462 nm.

Compound `F[B-]1(F)OC(c2ccc(Br)cc2)=Cc2c3ccccc3c3ccccc3[n+]21` yielded an emission maximum of 449 nm.

Turning to `CN1C(=CC2=C([O-])C(=CC3=[N+](C)c4ccccc4C3(C)C)C2=NC#N)C(C)(C)c2ccccc21`, the emission maximum was 665 nm.

As to `COc1ccc2c(-c3nc(-c4ccccc4F)no3)cc(=O)oc2c1`, the emission maximum is on record as 453 nm.

As for `F[B-]1(F)OC(c2ccccc2)=Cc2ccc3ccccc3[n+]21`, the emission maximum was found to be 438 nm.

For `CCCCCCCCCc1csc2cc(-c3cc(-c4cc5scc(CCCCCCCCC)c5s4)c4ccc5c(-c6cc7scc(CCCCCCCCC)c7s6)cc(-c6cc7scc(CCCCCCCCC)c7s6)c6ccc3c4c65)sc12`, the emission maximum was determined as 490 nm.

The compound `CC(C)c1cccc(C(C)C)c1-n1c(=O)c2cc3nc(-c4ccccc4)c4cc5c(=O)n(-c6c(C(C)C)cccc6C(C)C)c(=O)c6cc7nc(-c8ccccc8)c8cc(c1=O)c2c1c3c4c(c65)c7c81` registered an emission maximum of 502 nm.

In turn, `CC(C)(C)c1ccc2c(c1)c1cc(C(C)(C)C)ccc1n2-c1ccc2oc3nc4oc5ccc(C(F)(F)F)cc5c4cc3c2c1` showed an emission maximum of 364 nm.

As to `CN(C)c1ccc(/C=C/c2ccc(-c3nc(C#N)c(C#N)n3C)cc2)cc1`, the emission maximum was 500 nm.

Compound `CCCCCCCCOc1ccc2c3cccc4c(OCCCCCCCC)ccc(c5cccc1c52)c43` had an emission maximum of 471.01 nm.

In the case of `O=C1/C(=C\c2ccc3oc4ccccc4c3c2)S(=O)(=O)c2ccccc21`, the emission maximum amounted to 441 nm.

The series is the same for the next values; noted with them: in ClCCl.
On to `CC1=C(C)C(c2c(C)c(C)c3n2[B-](F)(F)[N+]2=C(C)C(C)=C(C)C2=C3)=[N+]2C1=Cc1c(C)c(C)c(C)n1[B-]2(F)F`, for which the emission maximum was 650 nm.

For `COc1cnc(-c2cc[n+](C3=C(F)C(F)(F)C(F)(F)[C-]3F)cc2)s1`, the emission maximum is 466 nm.

Turning to `CC1=C(c2ccc(N(C)C)cc2)C(C)=[N+]2C1=C(c1c(-c3ccccn3)nc3ccccn13)c1c(C)c(-c3ccc(N(C)C)cc3)c(C)n1[B-]2(F)F`, the emission maximum is reported as 722 nm.

The compound `COc1ccc(-c2cc(-c3ccc(C#N)cc3)nn2C)cc1` had an emission maximum of 384 nm.

In turn, `Fc1ccc(C2=[N+]3C(=Nc4c5ccccc5c(-c5ccc(F)cc5)n4[B-]3(F)F)c3ccccc32)cc1` displayed an emission maximum of 724 nm.

In turn, `COC(=O)/C=C/C=C/C1=CC2=C(c3c(C)cc(C)cc3C)c3cc(/C=C/C=C/C(=O)OC)cn3[B-](F)(F)[N+]2=C1` showed an emission maximum of 662 nm.

For the compound `COc1ccc(/C=C/C2=CC(/C=C/c3ccc(OC)cc3)=[O+][B-](F)(F)O2)cc1`, the emission maximum was 538 nm.

As for `Cn1c(=O)c(/N=N/c2ccc(S(=O)(=O)O)c3ccccc23)c(O)c2ccccc21`, the emission maximum is 541 nm.

For the compound `CCN(CC)c1ccc2cc(/C=C/C(=C(C#N)C#N)c3ccc4c(c3)c3ccccc3n4CC)c(=O)oc2c1`, the emission maximum was 604 nm.

Take `F[B-]1(F)OC(c2ccccc2)=Cc2ccc3ccccc3[n+]21`: the emission maximum amounted to 441 nm.

As for `c1ccc2c(c1)c1ccccc1n2-c1ccc(-c2ccc(-n3c4ccccc4c4ccccc43)nc2-n2c3ccccc3c3ccccc32)nn1`, the emission maximum is listed as 432.68 nm.

For the compound `Cc1ccc2nc3cc4ccccc4cc3c(-c3ccccc3)c2c1`, the emission maximum amounted to 521 nm.

As for `Cc1ccc2c(CC(=O)NN)coc2c1`, the emission maximum came out at 399 nm.

Compound `CCCCN1C(=O)c2cccc3c(C#CC#Cc4ccc5c6c(cccc46)C(=O)N(CCCC)C5=O)ccc(c23)C1=O` returned an emission maximum of 432 nm.

Compound `COc1cc(OC)cc(-c2ccc(C3=CC(c4ccccc4)=C(c4ccccc4)C3)cc2)c1` returned an emission maximum of 455 nm.

`c1ccc2c(c1)[nH]c1c3[nH]c4ccccc4c3c3nsnc3c21` yielded an emission maximum of 489 nm.

`C(=C\c1cc(/C=C/c2ccc(N(c3ccccc3)c3ccccc3)cc2)ncn1)/c1ccc(N(c2ccccc2)c2ccccc2)cc1` yielded an emission maximum of 540 nm.

`CCCCCCCCOc1ccc2c3cccc4c(OCCCCCCCC)ccc(c5cccc1c52)c43` showed an emission maximum of 469.99 nm.

In turn, `COc1ccc(C2=C(c3ccc(OC)cc3)c3cccc4c3c(cc3nc5ccccc5nc34)O2)cc1` returned an emission maximum of 572 nm.

Take `c1cncc(-c2ccc(-c3c4ccccc4c(-c4ccc(-c5cccnc5)cc4)c4cc(-c5cccnc5)ccc34)cc2)c1`: the emission maximum is reported as 434 nm.

Regarding `CCOC(=O)c1c(-c2cc3ccccc3oc2=O)nn(-c2ccc(Br)cc2)c1C(=O)OCC`, the emission maximum is reported as 400 nm.

With `c1ccc(B2Nc3cc4c(cc3-c3sc5ccccc5c32)NB(c2ccccc2)c2c-4sc3ccccc23)cc1`, the emission maximum is 418 nm.

Turning to `O=C1/C(=C\c2ccc3oc4ccccc4c3c2)S(=O)(=O)c2ccccc21`, the emission maximum was found to be 438 nm.

The same series, now with this note: in O.
Turning to `CN1C(=O)/C(=C/c2ccncc2)N=C1/C=C/c1ccncc1`, the emission maximum was 542 nm.

`Cn1c(=O)c(/N=N/c2ccc(S(=O)(=O)O)c3ccccc23)c(O)c2ccccc21`: the emission maximum came to 582 nm.

Compound `NNC(=O)N1C(=O)c2cc(S(=O)(=O)[O-])cc3c(N)c(S(=O)(=O)[O-])cc(c23)C1=O` returned an emission maximum of 535 nm.

The same series, now with this note: in c1ccncc1.
The compound `CCCCCCCCOc1ccc2c3cccc4c(OCCCCCCCC)ccc(c5cccc1c52)c43` showed an emission maximum of 474.01 nm.
